Assay results: patent US6683110B1, “Methyl esters of substituted 4-oxo-2-butenoic acid for treatment of tuberculosis” (University of Central Florida, priority 2001, dated 2004)

What was measured:
[1] = system: M. tuberculosis (ATCC 25177); test: BACTEC 460 TB radiometric growth inhibition bioassay (bacteriostatic activity); assay type: cell-based, Mycobacterium tuberculosis; settings: final concentration of 0.1 mg/ml in Bactec 7H12 B+ medium; percent inhibition from growth index
in vivo = settings: both sexes, mouse, ip, white mice, intraperitoneal injection of 2% solution in starch, 14 day observation
Procedure: Animal Toxicity Bioassay. Acute toxicity was studied on white mice of both sexes with weight ranging between 18-26 grams under intraperitoneal injection of 2% solution of tested compound in starch (the compound was dissolved in starch slime and injected) on the basis of 0.1 ml of solution per 10 g of the animal weight. Each dose was tested on the group of 6 animals that were observed during 14 day period. (This method was approved by the Pharmacology committee of Russian Ministry of Health and has been widely used since 1968.) Averaged lethal dose (LD50) of the compound was computed using results of experiments on 5-7 groups of animals using the method of Litchfield and Wilkinson. (Belenkii M. L. “Elements of quantative determination of the pharmacological effect,” Leningrad, 1963, 71 pages).
The acute toxicity of isoniazid is as following: LCLo (lowest published lethal concentration) for man is 100 mg/kg. […] All toxicity information about isoniazid can also be found on the web site: http://ntp-server.niehs.nih.gov/htdocs/Chem H&S/NTP Chem5/Radian54-85-3.html

Stability in solution = assay type: physicochemical; settings: decomposes quickly when the solution is heated or stored for a long time, with formation of OF-12
man = settings: cited from earlier work

SMILES: CCOc1ccc(C(=O)CC(O)(NN=C2c3ccccc3-c3ccccc32)C(=O)OC)cc1 (centres unmarked) [OF-13, 4-(4-Ethoxyphenyl)-2-(N′-fluoren-9-ylidenehydrazino)-2-hydroxy-4-oxobutyric acid methyl ester]
- percent activity against Mycobacterium tuberculosis [1]: 88%
- LD50 at 14 day (in vivo): > 1500 mg/kg
- Stability in solutions (Stability in solution): not stable in solutions

SMILES: NNC(=O)c1ccncc1 [isoniazid, isonicotinic acid hydrazide]
- acute ingestion leading to mild toxicity (man; adults, acute ingestion): ≥ 1.5 g
- ingestion that may be fatal (man; adults, acute ingestion): 6 to 10 g
- ingestion usually fatal if not appropriately treated (man; adults, acute ingestion): 15 g
- LCLo (lowest published lethal concentration) (man; man): 100 mg/kg

SMILES: CCOc1ccc(C(=O)C=C(NN=C2c3ccccc3-c3ccccc32)C(=O)OC)cc1 [OF-12, 4-(4-Ethoxyphenyl)-2-(N′-fluoren-9-ylidenehydrazino)-4-oxobut-2-enoic acid methyl ester]
- percent activity against Mycobacterium tuberculosis [1]: 81%
- LD50 at 14 day (in vivo): > 1500 mg/kg

SMILES: COC(=O)C(=CC(=O)C(C)(C)C)Nc1ccc(Br)cc1 [OF-15, 2-(4-Bromophenylamino)-5,5-dimethyl-4-oxohex-2-enoic acid methyl ester]
- percent activity against Mycobacterium tuberculosis [1]: 98%
- LD50 at 14 day (in vivo): > 1500 mg/kg
